Tests used:
[1] = test system: ABUTH (Velvetleaf); assay: Postemergence herbicidal evaluation; format: in vivo, Abutilon theophrasti; conditions: postemergence
Procedure, shortened: (§1)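 Visual 0–9 rating versus control (stand, vigor, malformation, size, chlorosis, overall appearance), taken four to five weeks post-spray. Two-week-old seedlings received roughly 0.0156–0.500 kg/ha active in acetone/water (50/50) with 0.5% TWEEN 20 via nozzle at 40 psi.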

[2] = test system: AMBEL (Ragweed, Common); assay: Postemergence herbicidal evaluation; format: in vivo, Ambrosia artemisifolia; conditions: postemergence
Procedure, shortened: as §1

[3] = test system: CHEAL (Lambsquarters, Common); assay: Postemergence herbicidal evaluation; format: in vivo, Chenopodium album; conditions: postemergence
Procedure, shortened: as §1

[4] = test system: ECHCG (Barnyardgrass); assay: Postemergence herbicidal evaluation; format: in vivo, Echinochloa crus-galli; conditions: postemergence
Procedure, shortened: as §1

[5] = test system: GLXMAW (Soybean, Williams); assay: Postemergence herbicidal evaluation; format: in vivo, Glycine max, (L.) Merr. cv Williams; conditions: postemergence
Procedure, shortened: as §1

[6] = test system: ORYSAT (Rice, Tebonnet); assay: Postemergence herbicidal evaluation; format: in vivo, Oryza sativa, (L.) Tebonnet; conditions: postemergence
Procedure, shortened: as §1

[7] = test system: ZEAMX (Corn, Field); assay: Postemergence herbicidal evaluation; format: in vivo, Zea mays; conditions: postemergence
Procedure, shortened: as §1

[8] = test system: AMBEL (Ragweed, Common); assay: Preemergence herbicidal evaluation; format: in vivo, Ambrosia artemisifolia; conditions: rated 4-5 weeks after treatment
Procedure, shortened: (§2)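 Seeds were planted in potting soil in cups, then sprayed preemergence with the test compound in aqueous acetone at about 0.0156 to 0.500 kg per hectare. Cups were kept under greenhouse conditions and visually rated 4–5 weeks after treatment on a 0–9 scale against an untreated control.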

[9] = test system: CASOB (Sicklepod); assay: Preemergence herbicidal evaluation; format: in vivo, Cassia obtusifolia; conditions: rated 4-5 weeks after treatment
Procedure, shortened: as §2

[10] = test system: CHEAL (Lambsquarters, Common); assay: Preemergence herbicidal evaluation; format: in vivo, Chenopodium album; conditions: rated 4-5 weeks after treatment
Procedure, shortened: as §2

[11] = test system: GALAP (Galium); assay: Preemergence herbicidal evaluation; format: in vivo, Galium aparine; conditions: rated 4-5 weeks after treatment
Procedure, shortened: as §2

[12] = test system: CYPSE (Flatsedge); assay: Preemergence weed control under flooded paddy conditions; format: in vivo, Cyperus serotinus; conditions: rated 3-4 weeks after treatment
Procedure, shortened: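 Ratings on a 0-9 visual scale cover stand, vigor, malformation, size, chlorosis and overall appearance relative to a control, taken three to four weeks post-treatment. Application was into flood water over freshly sown silt loam at roughly 0.0313 to 0.500 kg/ha.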

Cn1c(C(F)(F)F)cc(=O)n(-c2cc(N=C3SCC(=O)N3CC(=O)OCC3CC3)c(Cl)cc2F)c1=O [Compound 124, Cyclopropylmethyl 2-{{2-chloro-5-[3,6-dihydro-3-methyl-2,6-dioxo-4-(trifluoromethyl)-1(2H)-pyrimidinyl]-4-fluorophenyl}imino}-4-oxo-3-thiazolidineacetate]
herbicidal rating ABUTH ([1]; rate 0.0156 kg/ha): 7.0 | herbicidal rating ABUTH ([1]; rate 0.0313 kg/ha): 9.0 | herbicidal rating ABUTH ([1]; rate 0.0625 kg/ha): 9.0 | herbicidal rating AMBEL ([2]; rate 0.0156 kg/ha): 9.0 | herbicidal rating AMBEL ([2]; rate 0.0313 kg/ha): 9.0 | herbicidal rating AMBEL ([2]; rate 0.0625 kg/ha): 9.0 | herbicidal rating CHEAL ([3]; rate 0.0156 kg/ha): 9.0 | herbicidal rating CHEAL ([3]; rate 0.0313 kg/ha): 9.0 | herbicidal rating CHEAL ([3]; rate 0.0625 kg/ha): 9.0 | herbicidal rating ECHCG ([4]; rate 0.0156 kg/ha): 3.0 | herbicidal rating ECHCG ([4]; rate 0.0313 kg/ha): 3.0 | herbicidal rating ECHCG ([4]; rate 0.0625 kg/ha): 5.0 | herbicidal rating GLXMAW ([5]; rate 0.0156 kg/ha): 6.7 | herbicidal rating GLXMAW ([5]; rate 0.0313 kg/ha): 7.3 | herbicidal rating GLXMAW ([5]; rate 0.0625 kg/ha): 7.0 | herbicidal rating ORYSAT ([6]; rate 0.0156 kg/ha): 3.3 | herbicidal rating ORYSAT ([6]; rate 0.0313 kg/ha): 3.0 | herbicidal rating ORYSAT ([6]; rate 0.0625 kg/ha): 3.0 | herbicidal rating ZEAMX ([7]; rate 0.0156 kg/ha): 6.3 | herbicidal rating ZEAMX ([7]; rate 0.0313 kg/ha): 7.3 | herbicidal rating ZEAMX ([7]; rate 0.0625 kg/ha): 8.0 | Preemergence herbicidal rating AMBEL ([8]; rate 0.0156 kg/ha): 0.0 | Preemergence herbicidal rating AMBEL ([8]; rate 0.0313 kg/ha): 0.0 | Preemergence herbicidal rating AMBEL ([8]; rate 0.0625 kg/ha): 4.0 | Preemergence herbicidal rating AMBEL ([8]; rate 0.1250 kg/ha): 9.0 | Preemergence herbicidal rating AMBEL ([8]; rate 0.2500 kg/ha): 9.0 | Preemergence herbicidal rating AMBEL ([8]; rate 0.5000 kg/ha): 9.0 | Preemergence herbicidal rating CASOB ([9]; rate 0.0156 kg/ha): 0.0 | Preemergence herbicidal rating CASOB ([9]; rate 0.0313 kg/ha): 0.0 | Preemergence herbicidal rating CASOB ([9]; rate 0.0625 kg/ha): 1.0 | Preemergence herbicidal rating CASOB ([9]; rate 0.1250 kg/ha): 0.0 | Preemergence herbicidal rating CASOB ([9]; rate 0.2500 kg/ha): 3.0 | Preemergence herbicidal rating CASOB ([9]; rate 0.5000 kg/ha): 0.0 | Preemergence herbicidal rating CHEAL ([10]; rate 0.0156 kg/ha): 9.0 | Preemergence herbicidal rating CHEAL ([10]; rate 0.0313 kg/ha): 9.0 | Preemergence herbicidal rating CHEAL ([10]; rate 0.0625 kg/ha): 9.0 | Preemergence herbicidal rating CHEAL ([10]; rate 0.1250 kg/ha): 9.0 | Preemergence herbicidal rating CHEAL ([10]; rate 0.2500 kg/ha): 9.0 | Preemergence herbicidal rating CHEAL ([10]; rate 0.5000 kg/ha): 9.0 | Preemergence herbicidal rating GALAP ([11]; rate 0.0156 kg/ha): 0.0 | Preemergence herbicidal rating GALAP ([11]; rate 0.0313 kg/ha): 0.0 | Preemergence herbicidal rating GALAP ([11]; rate 0.0625 kg/ha): 0.0 | Preemergence herbicidal rating GALAP ([11]; rate 0.1250 kg/ha): 0.0 | Preemergence herbicidal rating GALAP ([11]; rate 0.2500 kg/ha): 6.0 | Preemergence herbicidal rating GALAP ([11]; rate 0.5000 kg/ha): 7.0 | herbicidal effect rating, CYPSE ([12]; 0.0313 kg/ha): 0.0 | herbicidal effect rating, CYPSE ([12]; 0.0625 kg/ha): 0.0 | herbicidal effect rating, CYPSE ([12]; 0.1250 kg/ha): 2.0 | herbicidal effect rating, CYPSE ([12]; 0.2500 kg/ha): 3.0

From patent publication US20020137929A1, “1 - (3-heterocyclylphenyl) isothiourea, -isourea, -guanidine and -amidine herbicidal agents” (Intellectual Property Department, BASF Aktiengesellschaft, priority 1998, published 2002)
